Measured values as given in patent publication US12679836B2, “4H-pyrrolo[3,2-c]pyridin-4-one compounds” (Bayer Aktiengesellschaft, priority 2019, dated 2026).
Like-named read-outs stand apart in the source and are kept apart here.

Assays:
[1] = biological target: Ba/F3-EGFR-insSVD cells (Homo sapiens, UniProt P00533, DUP768-770, cells depend on it); test: Ba/F3 cell survival assay (Cell Titer-Glo), EGFR-insSVD; assay type: cell-based; settings: without IL-3, with 10 ng/mL EGF, 48 h; read-out: BA/F3 (insSVD) IC50
Sequence of Ba/F3-EGFR-insSVD cells (P00533 with tags, fused parts or gaps DUP768-770): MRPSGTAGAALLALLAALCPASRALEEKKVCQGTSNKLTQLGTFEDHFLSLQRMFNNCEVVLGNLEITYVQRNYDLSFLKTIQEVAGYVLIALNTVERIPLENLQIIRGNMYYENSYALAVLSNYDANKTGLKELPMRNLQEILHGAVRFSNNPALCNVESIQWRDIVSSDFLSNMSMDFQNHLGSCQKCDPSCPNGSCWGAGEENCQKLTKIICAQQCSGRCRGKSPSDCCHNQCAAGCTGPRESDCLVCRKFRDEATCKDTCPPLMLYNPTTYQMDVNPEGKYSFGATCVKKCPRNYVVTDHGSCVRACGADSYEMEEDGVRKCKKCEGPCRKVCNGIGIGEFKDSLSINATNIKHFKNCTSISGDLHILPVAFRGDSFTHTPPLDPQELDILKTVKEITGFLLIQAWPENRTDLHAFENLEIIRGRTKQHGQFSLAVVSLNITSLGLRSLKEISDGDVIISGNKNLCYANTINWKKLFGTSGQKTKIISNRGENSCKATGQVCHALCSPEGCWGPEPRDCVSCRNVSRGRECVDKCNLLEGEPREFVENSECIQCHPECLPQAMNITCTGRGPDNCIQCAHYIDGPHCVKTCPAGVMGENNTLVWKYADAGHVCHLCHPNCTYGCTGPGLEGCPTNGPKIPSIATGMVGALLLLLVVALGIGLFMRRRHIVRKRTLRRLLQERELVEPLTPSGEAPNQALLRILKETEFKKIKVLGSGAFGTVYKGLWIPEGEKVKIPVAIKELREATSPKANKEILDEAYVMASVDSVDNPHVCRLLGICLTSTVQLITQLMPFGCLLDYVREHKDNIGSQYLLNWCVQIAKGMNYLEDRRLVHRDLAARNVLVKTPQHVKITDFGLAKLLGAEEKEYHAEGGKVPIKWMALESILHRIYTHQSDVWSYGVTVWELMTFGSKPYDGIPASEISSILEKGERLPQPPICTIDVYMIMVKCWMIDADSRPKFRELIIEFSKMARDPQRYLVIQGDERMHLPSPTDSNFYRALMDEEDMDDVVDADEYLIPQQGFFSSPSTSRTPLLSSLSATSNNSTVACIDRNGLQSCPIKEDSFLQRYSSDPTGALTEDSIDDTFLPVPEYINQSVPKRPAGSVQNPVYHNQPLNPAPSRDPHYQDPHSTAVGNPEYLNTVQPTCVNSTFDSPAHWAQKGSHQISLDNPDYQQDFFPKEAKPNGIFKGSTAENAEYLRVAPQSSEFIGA
Method: (§1) 293T cells from ATCC were transfected with pBABEpuro expression constructs for WT EGFR or EGFR-insSVD and pCL-Eco packaging vector using Fugene-6 transfection reagent from Promega. Plates were incubated at 37° C. for 48 h. Retrovirus was harvested by filtering the media supernatant through a 0.45 μm filter.
(§2) Ba/F3 cells purchased from DSMZ were grown in RPMI+10% FBS+10 ng/mL IL-3 and infected with filtered retroviral supernatant at a 1:2 dilution. Polybrene was added to a concentration of 8 μg/mL, plates were spun for 90 min, and incubated overnight at 37° C. 2 μg/mL puromycin was added to the infected cells 24 h after infection and cells were continually grown in the presence of puromycin and 10 ng/mL IL-3. Following stably expressing Ba/F3 cell lines were generated: Ba/F3-EGFR-WT, Ba/F3-EGFR-insSVD, (Ba/F3-vector-control).
(§3) For cell survival assays, Ba/F3 cells were grown to a density of 1-2 million cells per mL, spun down and resuspended in media without IL-3, and replated at a concentration 200,000-500,000 cells per mL. The cells ectopically expressing WT EGFR or EGFR-insSVD were plated with 10 ng/mL Millipore Culture grade EGF. The cells ectopically expressing pBABEpuro empty vector were plated with 10 ng/mL IL-3. 2 days later, cells were plated in 50 μL in a 384 well plate at a concentration of 4000 cells per well for cells assayed in the absence of IL-3 and 2000 cells per well for cells assayed in the presence of IL-3. 100 nL of compound was added to each well using a 100 nL pin head, and plates were incubated at 37° C. for 48 h.
(§4) Cell viability was measured by adding 20 μL of Cell Titer-Glo Luminescent Cell Viability Reagent diluted 1:3 in PBS. Plates were sealed with Perkin Elmer Top-Seal, inverted several times to mix, and immediately centrifuged at 1000 rpm for 2 min. Plates were incubated in low light conditions for 8-10 min and luminescence was measured.

[2] = biological target: T1, EGFR with insertion of SVD between D770 and N771 (EGFR ins SVD) (Homo sapiens, UniProt P00533, DUP768-770); test: Exon20-Mutant-EGFR(D770_N771insSVD) kinase assay (TR-FRET); assay type: biochemical; settings: 2 mM ATP, several values per example where printed
T1 construct: made in house; host or cells: Sf9 insect cells (baculovirus)
T1 sequence (P00533 with tags, fused parts or gaps DUP768-770): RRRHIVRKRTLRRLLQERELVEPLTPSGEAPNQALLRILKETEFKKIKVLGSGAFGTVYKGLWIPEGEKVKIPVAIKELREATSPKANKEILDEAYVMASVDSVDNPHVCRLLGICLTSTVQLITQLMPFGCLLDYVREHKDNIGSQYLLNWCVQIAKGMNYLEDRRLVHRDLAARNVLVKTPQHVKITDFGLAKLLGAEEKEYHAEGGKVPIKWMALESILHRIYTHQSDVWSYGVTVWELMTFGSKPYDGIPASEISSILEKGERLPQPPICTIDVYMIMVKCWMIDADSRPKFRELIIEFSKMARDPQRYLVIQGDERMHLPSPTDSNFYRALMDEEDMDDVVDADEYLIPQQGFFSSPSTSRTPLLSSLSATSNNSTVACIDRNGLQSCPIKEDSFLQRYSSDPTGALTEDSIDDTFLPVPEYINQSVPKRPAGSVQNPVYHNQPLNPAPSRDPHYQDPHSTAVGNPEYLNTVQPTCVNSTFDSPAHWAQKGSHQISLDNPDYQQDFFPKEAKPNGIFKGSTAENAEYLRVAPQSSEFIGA

[3] = biological target: T2, Bub1 (Homo sapiens, UniProt O43683); test: Bub1 TR-FRET high ATP kinase assay; assay type: biochemical; settings: 2 mM ATP
T2 construct: catalytic domain of human Bub1 (amino acids 704-1085); His6 (N); made in house; host or cells: Hi5 insect cells
T2 sequence (O43683 704-1085): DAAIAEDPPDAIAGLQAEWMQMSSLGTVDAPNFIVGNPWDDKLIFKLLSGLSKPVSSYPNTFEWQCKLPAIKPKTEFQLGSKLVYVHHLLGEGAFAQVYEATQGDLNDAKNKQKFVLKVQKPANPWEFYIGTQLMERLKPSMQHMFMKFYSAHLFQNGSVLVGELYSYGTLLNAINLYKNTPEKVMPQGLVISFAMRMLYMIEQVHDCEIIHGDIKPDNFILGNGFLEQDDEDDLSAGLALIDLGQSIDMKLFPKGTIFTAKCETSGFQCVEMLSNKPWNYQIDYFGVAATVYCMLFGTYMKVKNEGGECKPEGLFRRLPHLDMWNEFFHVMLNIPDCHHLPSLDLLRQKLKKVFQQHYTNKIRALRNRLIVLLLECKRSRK
Text: Bub1 High ATP Kinase Assay
Bub1-inhibitory activity of compounds of the present invention at a high ATP concentration was quantified employing the Bub1 TR-FRET high ATP kinase assay as described in the following paragraphs.
N-terminally His6-tagged recombinant catalytic domain of human Bub1 (amino acids 704-1085), expressed in insect cells (Hi5) and purified by Ni-NTA affinity chromatography and subsequent size exclusion chromatography, was used as enzyme. As substrate for the kinase reaction the biotinylated peptide biotin-Ahx-[…]—SEQ ID 7 (C-terminus in amid form) was used which can be purchased e.g. form the company Biosyntan (Berlin, Germany).

[4] = biological target: Ba/F3-EGFR-WT cells (Homo sapiens, UniProt P00533); test: Ba/F3 cell survival assay (Cell Titer-Glo), WT EGFR; assay type: cell-based; settings: without IL-3, with 10 ng/mL EGF, 48 h; read-out: BA/F3 (wild type) IC50
Sequence of Ba/F3-EGFR-WT cells (P00533 whole entry, change not shown): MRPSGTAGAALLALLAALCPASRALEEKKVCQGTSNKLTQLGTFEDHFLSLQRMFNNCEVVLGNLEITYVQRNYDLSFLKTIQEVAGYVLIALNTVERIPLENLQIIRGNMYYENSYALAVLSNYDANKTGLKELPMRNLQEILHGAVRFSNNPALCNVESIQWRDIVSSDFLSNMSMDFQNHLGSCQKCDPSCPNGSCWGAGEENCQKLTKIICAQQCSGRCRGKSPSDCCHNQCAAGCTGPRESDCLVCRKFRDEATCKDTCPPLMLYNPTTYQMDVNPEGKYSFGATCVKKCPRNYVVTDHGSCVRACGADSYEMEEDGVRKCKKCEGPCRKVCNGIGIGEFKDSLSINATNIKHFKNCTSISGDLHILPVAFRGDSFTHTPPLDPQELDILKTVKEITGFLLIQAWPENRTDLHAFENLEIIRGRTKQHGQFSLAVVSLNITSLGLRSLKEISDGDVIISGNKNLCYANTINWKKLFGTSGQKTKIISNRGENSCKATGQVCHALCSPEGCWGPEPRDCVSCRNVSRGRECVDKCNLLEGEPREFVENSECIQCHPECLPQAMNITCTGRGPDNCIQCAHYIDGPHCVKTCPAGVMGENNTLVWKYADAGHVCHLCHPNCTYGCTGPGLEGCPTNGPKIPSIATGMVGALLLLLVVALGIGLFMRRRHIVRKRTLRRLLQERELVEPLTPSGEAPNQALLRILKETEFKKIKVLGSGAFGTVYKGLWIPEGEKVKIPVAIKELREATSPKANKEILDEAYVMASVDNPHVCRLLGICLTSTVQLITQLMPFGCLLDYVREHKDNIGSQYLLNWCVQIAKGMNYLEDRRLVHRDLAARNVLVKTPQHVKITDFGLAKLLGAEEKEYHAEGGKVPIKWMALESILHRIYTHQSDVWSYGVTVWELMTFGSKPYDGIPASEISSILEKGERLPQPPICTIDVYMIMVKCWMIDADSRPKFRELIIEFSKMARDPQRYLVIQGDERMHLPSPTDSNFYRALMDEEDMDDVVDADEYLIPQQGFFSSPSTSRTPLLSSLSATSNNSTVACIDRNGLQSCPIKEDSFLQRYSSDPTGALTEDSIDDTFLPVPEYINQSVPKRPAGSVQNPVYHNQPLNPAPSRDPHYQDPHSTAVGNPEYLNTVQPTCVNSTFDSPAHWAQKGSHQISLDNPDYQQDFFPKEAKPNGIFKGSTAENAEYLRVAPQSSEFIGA
Method: as §1, §2, §3, §4

[5] = Bub1 high ATP (2 mM) IC50 [mol/l]
[6] = read-out: Bub1 high ATP (2 mM) IC50 [mol/l]

SMILES	GI50 [1] [nM]	mutEGFR (D770_N771insSVD) kinase assay IC50 [2] [nM]	IC50 [3, 5] [nM]	GI50 [4] [nM]	IC50 [3, 6] [nM]
CCc1c(F)cccc1Nc1c(-c2ccncc2OCC2COCCO2)[nH]c2c1C(=O)NCC2 (single isomer, unassigned) [Example 66, 2-(3-{[1,4-dioxan-2-yl]methoxy}pyridin-4-yl)-3-(2-ethyl-3-fluoroanilino)-1,5,6,7-tetrahydro-4H-pyrrolo[3,2-c]pyridin-4-one]	7.52	0.182	5040	252	
CCc1c(F)cccc1Nc1c(-c2ccncc2OCC2COCCO2)[nH]c2c1C(=O)NCC2 (single isomer, unassigned) [Example 67, 2-(3-{[1,4-dioxan-2-yl]methoxy}pyridin-4-yl)-3-(2-ethyl-3-fluoroanilino)-1,5,6,7-tetrahydro-4H-pyrrolo[3,2-c]pyridin-4-one]	29	0.217	2080	198	
CCc1c(F)cccc1Nc1c(-c2ccncc2OCC2COC(C)(C)CO2)[nH]c2c1C(=O)NCC2 (single isomer, unassigned) [Example 69, 2-(3-{[5,5-dimethyl-1,4-dioxan-2-yl]methoxy}pyridin-4-yl)-3-(2-ethyl-3-fluoroanilino)-1,5,6,7-tetrahydro-4H-pyrrolo[3,2-c]pyridin-4-one]	7.17	0.233	> 20000	312	
CCc1c(F)cccc1Nc1c(-c2ccncc2OCC2COC(C)(C)CO2)[nH]c2c1C(=O)NCC2 (single isomer, unassigned) [Example 70, 2-(3-{[5,5-dimethyl-1,4-dioxan-2-yl]methoxy}pyridin-4-yl)-3-(2-ethyl-3-fluoroanilino)-1,5,6,7-tetrahydro-4H-pyrrolo[3,2-c]pyridin-4-one]	67.9	0.168		714	> 20000
COc1c(Cl)cccc1Nc1c(-c2ccncc2OC(C)C2CN(C)CCO2)[nH]c2c1C(=O)NCC2 (single isomer, unassigned) [Example 72, 3-(3-chloro-2-methoxyanilino)-2-[3-({1-[4-methylmorpholin-2-yl]ethyl}oxy)pyridin-4-yl]-1,5,6,7-tetrahydro-4H-pyrrolo[3,2-c]pyridin-4-one]	67.3	1.41	> 20000	957	
COc1c(Cl)cccc1Nc1c(-c2ccncc2OC(C)C2CN(C)CCO2)[nH]c2c1C(=O)NCC2 (single isomer, unassigned) [Example 73, 3-(3-chloro-2-methoxyanilino)-2-[3-({1-[4-methylmorpholin-2-yl]ethyl}oxy)pyridin-4-yl]-1,5,6,7-tetrahydro-4H-pyrrolo[3,2-c]pyridin-4-one]	78	1.12		1280	> 20000
COc1c(Cl)cccc1Nc1c(-c2ccncc2OC(C)C2CN(C)CCO2)[nH]c2c1C(=O)NCC2 (single isomer, unassigned) [Example 74, 3-(3-chloro-2-methoxyanilino)-2-[3-({1-[-4-methylmorpholine-2-yl]ethyl}oxy)pyridin-4-yl]-1,5,6,7-tetrahydro-4H-pyrrolo[3,2-c]pyridin-4-one]	51.1	0.661		828	> 20000
COc1c(Cl)cccc1Nc1c(-c2ccncc2OC(C)C2CN(C)CCO2)[nH]c2c1C(=O)NCC2 (single isomer, unassigned) [Example 75, 3-(3-chloro-2-methoxyanilino)-2-[3-({1-[-4-methylmorpholin-2-yl]ethyl}oxy)pyridin-4-yl]-1,5,6,7-tetrahydro-4H-pyrrolo[3,2-c]pyridin-4-one]	571	4.99		3900	> 20000
